Assay results published in paper PMC3406030, “Structure of an MmyB-Like Regulator from C. aurantiacus, Member of a New Transcription Factor Family Linked to Antibiotic Metabolism in Actinomycetes” (PLoS ONE, 2012).

How the values were obtained:
[1] = molecular target: T1, MltR (Caur_2278) (Chloroflexus aurantiacus, UniProt A9WGF5); assay: X-ray crystallography (SAD, […] Å); format: binding; details: co-purified ligand, none added; identity tentative, modelled from electron density (related fatty acid, mixture or PEG fragment not excluded); PAS-like C-terminal domain; pH 9.1, 277 K
T1 construct: full length, 291 residues, SeMet derivative; N-terminal His tag cut by TEV leaving Gly0; expressed in E. coli; dimer in crystal, monomer by size exclusion
T1 sequence (A9WGF5 1-291): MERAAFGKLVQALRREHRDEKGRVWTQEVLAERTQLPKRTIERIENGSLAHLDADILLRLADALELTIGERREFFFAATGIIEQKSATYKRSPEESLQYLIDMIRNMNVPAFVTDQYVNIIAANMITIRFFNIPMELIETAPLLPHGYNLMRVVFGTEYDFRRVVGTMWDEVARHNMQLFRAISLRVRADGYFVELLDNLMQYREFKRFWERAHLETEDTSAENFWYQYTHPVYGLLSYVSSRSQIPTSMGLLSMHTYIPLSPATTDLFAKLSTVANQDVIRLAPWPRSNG

[2] = molecular target: MmyB-like transcription regulator MltR (Caur_2278) from Chloroflexus aurantiacus (Chloroflexus aurantiacus J-10-fl) (UniProt A9WGF5); assay: crystal structure; SeMet MltR, tag removed, 11.1 mg/ml; 0.2M NaCl, 10.5% polyethylene glycol 8000, 0.1M CHES pH 9.1, 277 K; space group C2, three monomers (1.5 dimers) in the asymmetric unit; bound myristic acid

Row | stoichiometry N [2] | Compound | X-ray crystallography (SAD, 2.3 Å) [1]
1 | – | CCCCCCCCCCCCCC(=O)O [MYR, myristic acid] | additional electron density in the putative ligand-binding site clearly indicated the presence of a fatty acid-type ligand
2 | 2 | MmyB-like transcription regulator MltR (Caur_2278) from Chloroflexus aurantiacus (from UniProt A9WGF5 1-291) (natural protein) | –
